In patent US8178688B2, “Benzamidine derivatives, process for the preparation thereof and pharmaceutical composition comprising the same” (Dong Wha Pharmaceutical Co., Ltd., priority 2004, dated 2012):
Like-named read-outs stand apart in the source and are kept apart here.

What was measured:
[1] = test system: osteoclast differentiation; assay: Inhibitory effects on osteoclast differentiation (co-culture of bone marrow cells with osteoblast, TRAP staining); format: cell-based, mice; conditions: for inhibition at 1 µM: Mus musculus, Osteoclast, 168 h, read-out: % inhibitory activity on osteoclastogenesis
Outline: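 Bone marrow cells from 6–8-week male ddY mice co-cultured with neonatal ICR mouse calvarial osteoblasts in α-MEM/FBS with dexamethasone (10^−7M) and vitamin D3 (10^−8M) for 7 days, compound and medium renewed every 2–3 days. TRAP-positive cells with ≥3 nuclei counted; inhibition given as percent of control.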

[2] = test system: osteoblast; assay: Effect on bone formation (osteoblast nodule mineralization, Alizarin red S); format: cell-based, ICR mice; conditions: calvarial osteoblast in osteogenic differentiation medium
Procedure: The osteoblast, treated in this experiment, was prepared from the osteoblast as prepared in the above.
The osteoblast, isolated from sequential enzymatic treatment of calvariae from neonated ICR mice, was cultured in α-MEM medium containing 10% FBS for 4˜5 days. The osteoblast was also cultured for 24 hr after seeding the cells on a 12 well plate (10^5 cell/well), and medium was exchanged with the osteogenic differentiation medium containing 10 mM β-glycerophosphate and 50 μg/ml ascorbic acid.
The test substances at the concentration of 0.1 uM and 0.1 nM were added to the above medium for evaluating the effect promoting bone formation. The differentiation medium containing the test substances was exchanged every 3 or 4 days for 14 to 21 days until confirming the nodule mineralization.
The cell was rinsed twice with distilled water, and fixed by the 10% formalin solutions for 30 minutes. Alizarin red S and Von-kossa Solution were treated on the plate for measuring deposited calcium and phosphate in cell matrix, and the activity of the test substances on the bone formation was analyzed by determining stained area.
Additionally, for the purpose of estimating quantitative Arizarin red S in cell matrix, stained Arizarin red S was extracted by treating 10 mM sodium phosphate solution (pH 7.0), containing 10% cetylpyridinium chloride, for 15˜30 minutes in the shaking incubator, and then the amount of the deposited calcium was estimated by calculating the absorbance of the extracted Arizarin red S at 564 nm. […]

[3] = test system: ovariectomized ddY mouse; assay: Therapeutic effect in the ovariectomized osteoporetic mouse model (trabecular bone volume of the femur); format: in vivo, ddY mice; conditions: 50 mg/kg/day oral gavage for 4 weeks from 4 weeks after ovariectomy, salts (methansulfonic acid or HCl); for change in vivo at 50 mg/kg: Mus musculus, 672 h, read-out: Changes on TBV (% changes vs vehicle control)
Procedure: The therapeutic effects of each benzamidine derivates were evaluated on the ovariectomized ddY mouse. Benzamidine derivates were dosed from 4 weeks after operation for 4 weeks and the changes on the trabecular bone volume (TBV) of the femur were observed via histomorphometry.
Female ddY mice (6-wk old upon receipt, SLC, Japan) were used after acclimatization for 7 days. Animals were allocated 5 per polycarbonate cage in a temperature (20-25° C.) and humidity (30-35%) controlled room. Light:dark cycle was 12 hr:12 hr and feed (Samyang, Korea) and water were supplied free to access.
Salts of benzamidine derivates (Methansulfonic acid or HCl) were used for the test substances of this invention. Test substances are dissolved and/or suspended in injectable distilled water and administered at a dosage volume of 10 ml/kg by oral gavage. All test substances are dosed from 4 weeks after operation for 4 weeks at 50 mg/kg/day.
To induce estrogen-deficient osteoporosis, bilateral ovaries are removed and then closed by routine methods. Operation was conduct under Ketamine hydrochloride and xylazine hydrochloride anesthesia.
The left femur of each mouse were separated at sacrifice, and fixed in 10% neutral buffered formalin (NBF), then decalcified in decalcifying solution (24.4% formic acid, and 0.5N sodium hydroxide) for 5 days (mixed decalcifying solution was exchanges once a day for 5 days). After the dexalcification, the femur was embedded in paraffin, sectioned (3˜4 μm) and stained with hematoxylin-eosin stain.
TBV was calculated using automated image analysis (analySIS Image Processing; SIS, Germany) under magnification of ×200 in the uniform area of trochlea epiphyseal regions (growth plate regions were excluded) of prepared histological specimens. TBV was calculated as percentage (%) levels.
The changes of TBV compared to that of vehicle control are calculated as following Equation 1 to help the understanding of the efficacy of test substances. Percentage changes=[((TBV of a−TBV of b)/TBV of b)×100] Equation 1

[4] = test system: cells; assay: Cytotoxicity test (MTT); format: cell-based; conditions: 10^−6M, 72 hrs, compared with the control group
Procedure: Cytotoxic effect of benzamidine derivatives was evaluated by the experiment described below.
The test substance was diluted in appropriate solvent at 10^−2M concentration. […] Cells to be used in cytotoxitic test were plated on a 96-well microplate in a dose of 1×10^4 cell/100 μL per well and cultured for 72 hrs. 25 μL of MTT [3-(4,5-dimethyl-2-thiazolyl)-2,5-diphenyl-2H-tetrazolium bromide] dissolved in PBS at 2 mg/mL were added before 4 hrs of the end of culture. After reaction, the plates were centrifuged, medium was decanted and 100 μL of DMSO was added to dissolve formazan. Lastly, the absorbance of developed plates was measured at 540 nm.

[5] = 1 μm, co-culture of bone marrow cells and osteoblast, 7 days, TRAP-positive osteoclasts versus controls
[6] = 1 m, co-culture of bone marrow cells and osteoblast, 7 days, TRAP-positive osteoclasts versus controls

In the case of `Cc1sc(C2CCCCC2)nc1-c1ccc(OCCCCCOc2ccc(C(=N)NO)cc2)cc1` [Example 14, N-hydroxy-4-(5-[4-(2-cyclohexyl-5-methyl-1,3-thiazol-4-yl)phenoxy]pentoxy)-benzamidine], the inhibition at 1 µM [1, 5] is reported as 89.2%, the “bone forming activity (%)” value ([2]; 0.1 nM) is reported as 10.56% and the “bone forming activity (%)” value ([2]; 0.1 μM) is reported as 12.06%.
`CCCCCc1nc(-c2ccc(OCCCCCOc3ccc(C(=N)NO)cc3)cc2)c(CC)s1` [Example 23, N-hydroxy-4-(5-[4-(5-ethyl-2-pentyl-1,3-thiazol-4-yl)phenoxy]pentoxy)-benzamidine] gave an inhibition at 1 µM [1] of 47.7%, a change in vivo at 50 mg/kg [3] of 28% and a melting point of 79 to 88 °C.
For `CCc1sc(N(C)CCO)nc1-c1ccc(OCCCCCOc2ccc(C(=N)NO)cc2)cc1` [Example 129, N-hydroxy-4-(5-[4-(5-ethyl-2-((2-hydroxyethyl)-methyl-amino)-1,3-thiazol-4-yl)phenoxy]pentoxy)-benzamidine], the inhibition at 1 µM [1, 6] was 64.7%, the “bone forming activity (%)” value ([2]; 0.1 nM) was 11.18% and the “bone forming activity (%)” value ([2]; 0.1 μM) was 11.54%.
In the case of `CCCCCc1nc(-c2ccc(OCCCCCOc3ccc(C(=N)NO)cc3)cc2)cs1` [Example 9, N-hydroxy-4-(5-[4-(2-pentyl-1,3-thiazol-4-yl)phenoxy]pentoxy)-benzamidine], the inhibition at 1 µM [1] is reported as 100%, the “bone forming activity (%)” value ([2]; 0.1 nM) is reported as 6.14% and the “bone forming activity (%)” value ([2]; 0.1 μM) is reported as 13.68%.
With `CCc1nc(-c2ccc(OCCCCCOc3ccc(C(=N)NO)cc3)cc2)c(C)s1` [Example 11, N-hydroxy-4-(5-[4-(2-ethyl-5-methyl-1,3-thiazol-4-yl)phenoxy]pentoxy)-benzamidine] the “Survival rates of the cells” value ([4]; MC3T3-E1 cells) was 87.2%, the “Survival rates of the cells” value ([4]; ST2 cells) was 33.1% and the inhibition at 1 µM [1, 5] was 53.2%. It also gave a melting point of 127 to 131 °C.
In the case of `CCN(CCN1CCOCC1)c1nc(-c2ccc(OCCCCCOc3ccc(C(=N)NO)cc3)cc2)c(C)s1` [Example 124, N-hydroxy-4-(5-[4-(2-(ethyl-1-(2-morpholinoethyl)-amino)-5-methyl-1,3-thiazol-4-yl)phenoxy]pentoxy)-benzamidine], the “% inhibitory activity on osteoclastogenesis” value ([1]; co-culture of bone marrow cells and osteoblast, 7 days, TRAP-positive osteoclasts versus controls) is reported as 87.9%, the “bone forming activity (%)” value ([2]; 0.1 nM) is reported as 6.44% and the “bone forming activity (%)” value ([2]; 0.1 μM) is reported as 12.9%. The “Changes on TBV (% changes vs vehicle control)” value [3] was 72.82%.
With `CCCCCc1nc(-c2ccc(OCCCCCOc3ccc(C(=N)NO)cc3)cc2)c(C)s1` [Example 15, N-hydroxy-4-(5-[4-(5-methyl-2-pentyl-1,3-thiazol-4-yl)phenoxy]pentoxy)-benzamidine] the “Survival rates of the cells” value ([4]; MC3T3-E1 cells) was 81.8%, the “Survival rates of the cells” value ([4]; ST2 cells) was 42.3% and the inhibition at 1 µM [1] was 68.3%. For the same compound, the melting point was 81 to 89 °C.
In the case of `N=C(NO)c1ccc(OCCCCCOc2ccc(-c3csc(-c4cccnc4)n3)cc2)cc1` [Example 7, N-hydroxy-4-(5-[4-(2-pyridin-3-yl-1,3-thiazol-4-yl)phenoxy]pentoxy)-benzamidine], the inhibition at 1 µM [1, 5] is reported as 94.5%, the “bone forming activity (%)” value ([2]; 0.1 nM) is reported as 1.24% and the “bone forming activity (%)” value ([2]; 0.1 μM) is reported as 9.61%. It also gave a melting point of 149 to 154 °C.
Work on `Cc1nc(-c2ccc(OCCCCCOc3ccc(C(=N)NO)cc3)cc2)cs1` [Example 3, N-hydroxy-4-(5-[4-(2-methyl-1,3-thiazol-4-yl)phenoxy]pentoxy)-benzamidine] yielded an inhibition at 1 µM [1, 5] of 41.4% and a melting point of 139 to 140 °C.
In the case of `CC(C)c1nc(-c2ccc(OCCCCCOc3ccc(C(=N)NO)cc3)cc2)cs1` [Example 5, N-hydroxy-4-(5-[4-(2-isopropyl-1,3-thiazol-4-yl)phenoxy]pentoxy)-benzamidine], the inhibition at 1 µM [1, 5] is reported as 87.5% and the melting point is reported as 95 to 129 °C.
In the case of `CCc1sc(-c2ccccc2)nc1-c1ccc(OCCCCCOc2ccc(C(=N)NO)cc2)cc1` [Example 20, N-hydroxy-4-(5-[4-(5-ethyl-2-phenyl-1,3-thiazol-4-yl)phenoxy]pentoxy)-benzamidine], the inhibition at 1 µM [1, 5] is reported as 35.6% and the melting point is reported as 83 to 86 °C.
For `CCc1sc(-c2cccnc2)nc1-c1ccc(OCCCCCOc2ccc(C(=N)NO)cc2)cc1` [Example 21, N-hydroxy-4-(5-[4-(5-ethyl-2-pyridin-3-yl-1,3-thiazol-4-yl)phenoxy]pentoxy)-benzamidine], the change in vivo at 50 mg/kg [3] was 75.5% and the melting point was 146 to 153 °C.
In the case of `CCc1sc(C2CCCCC2)nc1-c1ccc(OCCCCCOc2ccc(C(=N)NO)cc2)cc1` [Example 22, N-hydroxy-4-(5-[4-(2-cyclohexyl-5-ethyl-1,3-thiazol-4-yl)phenoxy]pentoxy)-benzamidine], the inhibition at 1 µM [1, 5] is reported as 92.6%, the “bone forming activity (%)” value ([2]; 0.1 nM) is reported as 10.33% and the “bone forming activity (%)” value ([2]; 0.1 μM) is reported as 8.56%.
`CCCCc1sc(CC)nc1-c1ccc(OCCCCCOc2ccc(C(=N)NO)cc2)cc1` [Example 31, N-hydroxy-4-(5-[4-(5-butyl-2-ethyl-1,3-thiazol-4-yl)phenoxy]pentoxy)-benzamidine] gave an inhibition at 1 µM [1, 5] of 35.6% and a melting point of 80 to 84 °C.
With `CCNc1nc(-c2ccc(OCCCCCOc3ccc(C(=N)NO)cc3)cc2)c(CC2CCCC2)s1` [Example 110, N-hydroxy-4-(5-[4-(5-cyclopentylmethyl-2-ethylamino-1,3-thiazol-4-yl)phenoxy]pentoxy)-benzamidine] the inhibition at 1 µM [1, 6] was 100%, the “bone forming activity (%)” value ([2]; 0.1 nM) was 9.76% and the “bone forming activity (%)” value ([2]; 0.1 μM) was 9.37%.
With `N=C(NO)c1ccc(OCCCCCOc2ccc(-c3nc(-c4cccnc4)sc3Cc3ccccc3)cc2)cc1` [Example 41, N-hydroxy-4-(5-[4-(5-benzyl-2-pyridin-3-yl-1,3-thiazol-4-yl)phenoxy]pentoxy)-benzamidine] the “Survival rates of the cells” value ([4]; MC3T3-E1 cells) was 84.6%, the “Survival rates of the cells” value ([4]; ST2 cells) was 48.7% and the inhibition at 1 µM [1, 5] was 64%. For the same compound, the melting point was 134 to 143 °C.
